{"source": "patent US10098881B2", "about": "“Compounds” (AUTIFONY THERAPEUTICS LIMITED, priority 2011, dated 2018)", "key": {"Male CD-1 mice": {"tested_on": "Male CD-1 mice", "assay": "Biological Example 2: psychostimulant (amphetamine)-induced hyperactivity in mice", "details": "over 60 minutes, mean ± sem"}, "[1]": {"assay": "Analysis of blood levels of Example 4 in study mice", "assay_type": "in vivo", "details": "CD-1, whole blood, ip, mouse, 90 minutes after administration, n=3, mean [range], read-out: Blood concentration of Test Drug", "description": "Blood samples were collected from a subset of study mice (n=3) at the end of the behavioural measurement (90 minutes post-dose of test drug), and assayed using a method based on protein precipitation with acetonitrile followed by HPLC-MS/MS analysis with an optimized analytical method. Since the stability of the analyte in blood and brain was unknown, Calibration standards (CS) and Quality control samples (QC) were prepared on the day of dosing and stored together with study samples. Study samples, CS, QC and blanks were spiked with rolipram as internal standard (IS). Study samples were analyzed in discrete batches together with CS, QC and blank samples."}, "[2]": {"biological_target": "T1, human Kv3.2 channels (hKv3.2) (Homo sapiens, UniProt Q96PR1)", "T1 construct": "expressed in transfected cells", "T1 sequence (Q96PR1 1-638)": "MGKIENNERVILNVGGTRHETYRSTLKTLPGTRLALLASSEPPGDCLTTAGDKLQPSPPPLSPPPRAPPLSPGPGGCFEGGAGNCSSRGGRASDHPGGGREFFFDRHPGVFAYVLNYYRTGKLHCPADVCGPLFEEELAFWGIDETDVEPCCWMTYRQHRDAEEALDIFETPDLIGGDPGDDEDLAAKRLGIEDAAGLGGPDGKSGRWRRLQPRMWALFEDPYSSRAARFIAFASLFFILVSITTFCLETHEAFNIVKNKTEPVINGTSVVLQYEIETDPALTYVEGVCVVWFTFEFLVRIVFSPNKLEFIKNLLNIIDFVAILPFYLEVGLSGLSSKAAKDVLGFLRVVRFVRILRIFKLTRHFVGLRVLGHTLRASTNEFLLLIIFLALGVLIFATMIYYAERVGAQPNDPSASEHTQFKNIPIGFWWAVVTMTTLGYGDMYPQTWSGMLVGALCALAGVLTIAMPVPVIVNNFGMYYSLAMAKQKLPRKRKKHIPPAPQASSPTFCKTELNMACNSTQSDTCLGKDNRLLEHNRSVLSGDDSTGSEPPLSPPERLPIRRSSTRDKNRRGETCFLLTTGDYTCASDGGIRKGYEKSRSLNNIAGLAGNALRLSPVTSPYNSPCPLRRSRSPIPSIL", "assay": "Biological Example 1: hKv3.2 whole-cell currents, IonWorks Quattro planar array electrophysiology", "assay_type": "cell-based", "source_text": "The ability of the compounds of the invention to modulate the voltage-gated potassium channel subtypes Kv3.2 or Kv3.1 may be determined using the following assay. Analogous methods may be used to investigate the ability of the compounds of the invention to modulate other channel subtypes, including Kv3.3 and Kv3.4.\nTo assess compound effects on human Kv3.2 channels (hKv3.2), a stable cell line expressing hKv3.2 was created by transfecting Chinese Hamster Ovary (CHO)-K1 cells with a pClH5-hKv3.2 vector. Cells were cultured in DMEM/F12 medium supplemented by 10% Foetal Bovine Serum, lx non-essential amino acids (Invitrogen) and 500 ug/ml of Hygromycin-B (Invitrogen). Cells were grown and maintained at 37° C. in a humidified environment containing 5% CO2 in air.\nThe day of the experiment, cells were removed from the incubator and the culture medium removed. Cells were washed with 5 ml of Dulbecco's PBS (DPBS) calcium and magnesium free and detached by the addition of 3 ml Versene (Invitrogen, Italy) followed by a brief incubation at 37° C. for 5 minutes. The flask was tapped to dislodge cells and 10 ml of DPBS containing calcium and magnesium was added to prepare a cell suspension. The cell suspension was then placed into a 15 ml centrifuge tube and centrifuged for 2 min at 1200 rpm. After centrifugation, the supernatant was removed and the cell pellet re-suspended in 4 ml of DPBS containing calcium and magnesium using a 5 ml pipette to break up the pellet. Cell suspension volume was then corrected to give a cell concentration for the assay of approximately 3 million cells per ml.\nExperiments were conducted at room temperature using IonWorks Quattro™ planar array electrophysiology technology (Molecular Devices Corp.) with PatchPlate™ PPC. Stimulation protocols and data acquisition were carried out using a microcomputer (Dell Pentium 4). Planar electrode hole resistances (Rp) were determined by applying a 10 mV voltage step across each well. These measurements were performed before cell addition. […] Following this, amphotericin-B solution was added to the intracellular face of the electrode to achieve intracellular access. Cells were held at −70 mV. Leak subtraction was conducted in all experiments by applying 50 ms hyperpolarizing (10 mV) prepulses to evoke leak currents followed by a 20 ms period at the holding potential before test pulses. From the holding potential of −70 mV, a first test pulse to −15 mV was applied for 100 ms and following a further 100 ms at −70 mV, a second pulse to 40 mV was applied for 50 ms. Cells were then maintained for a further 100 ms at −100 mV and then a voltage ramp from −100 mV to 40 mV was applied over 200 ms. Test pulses protocol may be performed in the absence (pre-read) and presence (post-read) of the test compound. Pre- and post-reads may be separated by the compound addition followed by a 3 minute incubation.\nThe intracellular solution contained the following (in mM): K-gluconate 100, KCl 54, MgCl2 3.2, HEPES 5, adjusted to pH 7.3 with KOH. Amphotericin-B solution was prepared as […] stock solution in DMSO and diluted to a final working concentration of 0.1 mg/ml in intracellular solution.\nCompounds of the invention (or reference compounds such as N-cyclohexyl-N-[(7,8-dimethyl-2-oxo-1,2-dihydro-3-quinolinyl)methyl]-N′-phenylurea were dissolved in dimethylsulfoxide (DMSO) at a stock concentration of 10 mM. These solutions were further diluted with DMSO using a Biomek FX\nEach dilution (1 μL) was transferred to another compound plate and external solution containing 0.05% pluronic acid (66 μL) was added. 3.5 μL from each plate containing a compound of the invention was added and incubated with the cells during the lonWorks Quattro™ experiment. The final assay dilution was 200 and the final compound concentrations were in the range 50 μM to 50 nM."}, "[3]": {"tested_on": "\"fast-firing\" interneurons in the somatosensory cortex", "assay": "Recordings from identified fast-firing interneurons, trains of high frequency depolarising current pulses", "assay_type": "cell-based, mouse", "details": "1 microM, n=6; trains of depolarising pulses at 100, 200, 300 Hz; p<0.05 vs no drug; listed as Reference Example 9", "source_text": "FIG. 2. Recordings made from identified “fast-firing” interneurons in the somatosensory cortex of the mouse.\nKv3.1 and Kv3.2 channels must activate and deactivate very rapidly in order to allow neurons to fire actions potentials at high frequency (Rudy and McBain, 2001, Trends in Neurosciences 24, 517-526). Slowing of activation is likely to delay the onset of action potential repolarisation; slowing of deactivation could lead to hyperpolarising currents that reduce the excitability of the neuron and delay the time before the neuron can fire a further action potential. Together these slowing effects on channel activation and deactivation are likely to lead to a reduction rather than a facilitation of the neurons ability to fire at high frequencies. Thus compounds that have this slowing effect on the Kv3.1 and/or Kv3.2 channels may slow neuronal firing.\nThe neurons are induced to fire at high frequencies by trains of high frequency depolarising current pulses at 100, 200, and 300 Hz. The ability of the neuron to fire an action potential on each pulse is determined. […] In the absence of drug (closed circles, n=9), the neurons maintained a spike probability of 1 up to 300 Hz."}}, "note": "Entries after “also recorded” stand apart in the source; their conditions may differ. Like-named read-outs stand apart in the source and are kept apart here."}
{"compound": "Cc1ccc(Oc2ncc(N3C(=O)NC(C)(C)C3=O)cn2)c2c1OCC21CC1", "note": "[Example 4, 5,5-dimethyl-3-[2-(7-methylspiro[2H-benzofuran-3,1′-cyclopropane]-4-yl)oxypyrimidin-5-yl]imidazolidine-2,4-dione]", "values": [{"measurement": "Locomotor activity (beam crosses)", "setting": "Male CD-1 mice; AMPH 2 mg/kg i.p. + Example 4 3 mg/kg i.p. 30 min before", "result": "10263 ± 2443", "unit": "beam crosses"}, {"measurement": "Locomotor activity (beam crosses)", "setting": "Male CD-1 mice; AMPH 2 mg/kg i.p. + Example 4 10 mg/kg i.p. 30 min before, p<0.05 vs amphetamine alone", "result": "9015 ± 1413", "unit": "beam crosses"}, {"measurement": "Locomotor activity (beam crosses)", "setting": "Male CD-1 mice; AMPH 2 mg/kg i.p. + Example 4 30 mg/kg i.p. 30 min before, p<0.001 vs amphetamine alone", "result": "4555 ± 922", "unit": "beam crosses"}, {"measurement": "concentration at 90 min", "setting": "[1]; Example 4 3 mg/kg i.p.", "result": 98, "unit": "ng/mL"}, {"measurement": "concentration at 90 min", "setting": "[1]; Example 4 10 mg/kg i.p.", "result": 244, "unit": "ng/mL"}, {"measurement": "concentration at 90 min", "setting": "[1]; Example 4 30 mg/kg i.p.", "result": 2140, "unit": "ng/mL"}]}
{"compound": "CC[C@H]1NC(=O)N(c2ccc(Oc3cccc4c3C3(CC3)CO4)nc2)C1=O", "note": "[RE9, reference compound]", "values": [{"measurement": "Tauact mean", "setting": "[2]; hKv3.2, -15 mV voltage step, compound 0.2 μM (concentration giving ~0.3 nA current at end of pulse)", "result": 50.1, "unit": "ms"}, {"measurement": "Tauact", "setting": "[2]; hKv3.2, each tested at a concentration that increased the Kv3.2 current to a similar level (~0.3 nA)", "result": "50.1 ± 7.5", "unit": "ms"}, {"measurement": "ability of the neurons to fire on each pulse (spike probability)", "setting": "[3]", "result": "reduces the ability of the neurons to fire; also recorded: unable to follow trains at the highest frequency"}]}
